How the values were obtained:
[1] = tested on: HSP17.6C-C1 of Arabidopsis thaliana; test: HSP expression test (HSP17.6C-C1 upstream region linked to GUS, 4-MU production); format: in vivo; design: key: 4-MU per plant divided by 4-MU of 50 μM geldanamycin positive control; conditions: soaked 6 hours at 22° C., positive control 50 μM geldanamycin
Protocol: First, a construct linked to β-glucuronidase (GUS) gene was introduced to 1 kb upstream of HSP17.6C-C1 of Arabidopsis thaliana (the family Brassicaceae) to prepare a mutant. Each naphthoquinone compound (shown in Table 1) dissolved in DMSO was diluted to 1 μM, 10 μM, 100 μM, or 1000 μM (final concentration) with deionized water to prepare a test solution of each example (final concentration of DMSO: 1.0% by volume). A 50 μM geldanamycin solution was similarly prepared as a positive control.
Next, two individuals of 7-day-old Arabidopsis thaliana mutants grown in a ⅕ MS medium were soaked in 300 μL of the test solution of each example or the positive control at 22° C. for 6 hours. The Arabidopsis thaliana was washed with deionized water, then soaked in 200 μL of a 4-methylumbelliferyl-β-D-glucuronide hydrate solution containing a surfactant, and incubated at 22° C. for 16 hours in the dark. The fluorescence intensity of the supernatant was measured, and the amount of 4-methylumbelliferone (4-MU) production per plant was calculated. The calculated value of 4-MU was divided by the value of 4-MU of the positive control to calculate a ratio vs. positive control. A higher numerical value means that HSP was expressed at a larger level.
Each shikonin compound or alkannin compound (shown in Table 2) dissolved in DMSO was diluted to 1 μM, 10 μM, 100 μM, or 1000 μM (final concentration) with deionized water to prepare a test solution of each example (final concentration of DMSO: 1.0% by volume). A 50 μM geldanamycin solution was similarly prepared as a positive control. The other test procedures were performed in the same way as in Test Example 1. The calculated value of 4-MU was divided by the value of 4-MU of the positive control to calculate a ratio vs. positive control. […]

Arabidopsis thaliana = test: Heat tolerance induction test based on chlorophyll concentration; format: in vivo; conditions: 50 μM in medium; heat-treated at 44° C. for 1 hour; 3 days culture after
Protocol: A ⅕ MS medium was prepared in a 6-well plate, and filter paper was placed thereon. 12 individuals of wild-type Arabidopsis thaliana were seeded per well and grown at 22° C. for 7 days in a plant incubator under 16-hour light and 8-hour dark conditions. Next, the naphthoquinone compound of each example (shown in Table 3) dissolved in DMSO was added to a ⅕ MS medium, and each medium (final concentration: 50 μM) was prepared in a 6-well plate (final concentration of DMSO: 1.0% by volume). A medium containing 1.0% by volume of DMSO was used as a control.
The Arabidopsis thaliana grown for 7 days in the 6-well plate was transplanted, together with the filter paper, to the medium containing the compound and cultured for 1 day in a plant incubator. The plate was placed in a plastic bag and heat-treated at 44° C. for 1 hour in a water bath. After the heat treatment, culture was performed for 3 days in a plant incubator. The leaves of 4 Arabidopsis thaliana individuals were cut out, and chlorophyll was extracted with 300 μL of ethanol. The absorbance of each extract was measured at 649 nm and 665 nm, and the chlorophyll concentration (mg/L) was calculated. A higher chlorophyll concentration means that heat tolerance is better.
The shikonin compound of each example (shown in Table 4) dissolved in DMSO was added to a ⅕ MS medium, and each medium (final concentration: 50 μM) was prepared in a 6-well plate (final concentration of DMSO: 1.0% by volume). A medium containing 1% by volume of DMSO was used as a control. The other test procedures were performed in the same way as in Test Example 3.
The Lithospermi radix extract used was Shikonix Liquid (BG) (trade name, manufactured by Ichimaru Pharcos Co., Ltd.) containing a Lithospermum erythrorhizon root extract. The Shikonix Liquid contained, as major components, shikonin compounds such as acetylshikonin, β-hydroxyisovalerylshikonin, and isobutyrylshikonin. The Shikonix Liquid also contained, as additional minor components, α-methyl-n-butylshikonin, β,β-dimethylacrylshikonin, isovalerylshikonin, and shikonin.
The Shikonix Liquid (BG) was added at a dilution ratio of 150-fold to a ⅕ MS medium. The same amount of water was added as a control. ThermoZyme (manufactured by Fujimikogyo Co., Ltd.) was added at a dilution ratio of 150-fold as a positive control (Reference Example). The other test procedures were performed in the same way as in Test Example 3.

Compound | Ratio of 4-MU amount vs. positive control ([1]; 1 μM) | Ratio of 4-MU amount vs. positive control ([1]; 10 μM) | Ratio of 4-MU amount vs. positive control ([1]; 100 μM) | Ratio of 4-MU amount vs. positive control ([1]; 1000 μM) | Chlorophyll concentration (Arabidopsis thaliana)
CCC(C)C(=O)O[C@H](CC=C(C)C)C1=CC(=O)c2c(O)ccc(O)c2C1=O (stereo partly drawn) [Example 18, α-Methyl-n-butylshikonin] | 0.02 | 1.00 | 1.40 | 2.76 | –
CC(C)=CC[C@@H](OC(=O)CC(C)(C)O)C1=CC(=O)c2c(O)ccc(O)c2C1=O [Example 17, β-Hydroxyisovalerylshikonin] | 0.10 | 0.71 | 0.80 | 0.25 | 5.57 mg/L
O=C1C(Cl)=C(Cl)C(=O)c2cc([N+](=O)[O-])ccc21 [Example 9, 2,3-Dichloro-6-nitro-1,4-naphthoquinone] | 0.17 | 0.91 | 0.66 | 0.48 | –
CC1=CC(=O)c2c(O)cccc2C1=O [Example 4, 5-Hydroxy-2-methyl-1,4-naphthoquinone] | 0.13 | 1.0 | 0.18 | 0.06 | –
CC(=O)O[C@H](CC=C(C)C)C1=CC(=O)c2c(O)ccc(O)c2C1=O [Example 14, Acetylshikonin] | 0.05 | 1.03 | 1.00 | 0.81 | 5.73 mg/L
O=C1C=CC(=O)c2c(O)cccc21 [Example 3, 5-Hydroxy-1,4-naphthoquinone] | 0.17 | 0.14 | 0.59 | 0.46 | –
CC(C)=CCC(OC(=O)C=C(C)C)C1=CC(=O)c2c(O)ccc(O)c2C1=O (stereo not drawn) [Example 19, β,β-Dimethylacrylshikonin] | 0.02 | 0.95 | 1.35 | 2.28 | –
NC1=C(Cl)C(=O)c2ccccc2C1=O [Example 12, 2-Amino-3-chloro-1,4-naphthoquinone] | 0.06 | 0.15 | 0.19 | 0.14 | –
COC1=CC(=O)c2ccccc2C1=O [Example 11, 2-Methoxy-1,4-naphthoquinone] | 0.06 | 0.04 | 0.21 | 0.11 | –
CC(C)=CC[C@@H](OC(=O)C(C)C)C1=CC(=O)c2c(O)ccc(O)c2C1=O [Example 15, Isobutyrylshikonin] | 0.03 | 1.79 | 1.19 | 1.23 | 6.29 mg/L
CC(C)=CC[C@H](O)C1=CC(=O)c2c(O)ccc(O)c2C1=O [Example 20, Alkannin] | 0.04 | 0.11 | 0.62 | 1.13 | –
O=C1C=CC(=O)c2ccccc21 [Example 1, 1,4-Naphthoquinone] | 0.13 | 0.76 | 0.27 | 0.03 | –
CC(C)=CCC(OC(=O)CC(C)C)C1=CC(=O)c2c(O)ccc(O)c2C1=O (stereo not drawn) [Example 16, Isovalerylshikonin] | 0.04 | 0.93 | 0.85 | 0.76 | –
CC1=CC(=O)c2ccccc2C1=O [Example 10, 2-Methyl-1,4-naphthoquinone] | 0.04 | 0.05 | 0.09 | 0.08 | –
O=C1C=C(O)C(=O)c2ccccc21 [Example 2, 2-Hydroxy-1,4-naphthoquinone] | 0.14 | 0.15 | 0.47 | 0.04 | –
CC(C)=CC[C@@H](O)C1=CC(=O)c2c(O)ccc(O)c2C1=O [Example 13, Shikonin] | 0.04 | 0.92 | 1.52 | 0.85 | 6.28 mg/L
O=C1C(Cl)=C(Cl)C(=O)c2c1cccc2[N+](=O)[O-] [Example 8, 2,3-Dichloro-5-nitro-1,4-naphthoquinone] | 0.15 | 1.00 | 0.38 | 0.46 | –

From US11638425B2, “Agent for inducing stress tolerance in plants” (Menicon Co. Ltd., priority 2017, dated 2023)
